Measurements taken from patent publication US20230121031A1, “MASKED FLUOROGENIC COMPOUNDS AND METHODS OF USING THE SAME” (Rutgers, The State University of New Jersey, priority 2021, published 2023).

Tests used:
RNABabySpinach = assay: Fluorescence of H2O2-treated aptamer solutions; assay type: biochemical; details: for rise of fluorescence intensity of ligand+RNABabySpinach+H2O2: H2O2 100 μM
Protocol: FIGS. 7A-7C depict H2O2 treatment of the aptamer systems. HBI and PBE-HBI (50 μM), RNA (1 μM RNABabySpinach), HEPES (pH 8, 50 mM), KCl (100 mM), MgCl2 (10 mM), H2O2 (100 μM). FIG. 7A depict the time-dependent change in fluorescence intensity upon H2O2 addition. FIG. 7B depicts normalized RFUs at 0, 5, and 60 min. FIG. 7C depicts RNABabySpinach stability against H2O2. TBE-urea PAGE lanes: 1. Native RNA; 2. [HBI+RNA]; 3. [HBI+RNA+H2O2]; 4. [PBE-HBI+RNA]; 5. [PBE-HBI+RNA+H2O2]. For imaging, the gel was stained with SYBR gold.
Next, the change in fluorescence for H2O2-treated aptamer solutions that contain HBI (positive control) and PBE-HBI (FIGS. 7A and 7B) was monitored. The RFU of PBE-HBI+RNABabySpinach was lower than that of HBI+RNABabySpinach by 14-fold at 0 min (no H2O2 present), validating that masking the phenolic oxygen of HBI inhibits RNA binding. Upon addition of H2O2 (100 μM), RFU of PBE-HBI+RNABabySpinach reached up to 92% of RFU of the control in 60 min. […] Upon H2O2 addition, the solution pH increased from 8.0 to 8.4 while ˜10% growth in fluorescence intensity was measured for the HBI-containing samples. This change is attributed to the pH-dependent increase in the phenolate form of HBI (see FIG. 5), which is known to have a higher extinction coefficient than its phenol form. […] To investigate the backbone stability of RNABabySpinach under these oxidative conditions, PAGE analyses of RNABabySpinach solutions containing HBI (FIG. 7C, lanes 2 and 3) and PBE-HBI (FIG. 7C, lanes 4 and 5) were carried out.
Remarkably, the kinetics of H2O2 detection, which involves conversion of PBE-HBI to HBI, followed by HBI-aptamer binding, is fast. The incubation time to achieve 1/2 RFUmax through this process is 6.8 (±0.5) min. Reliable detection of H2O2 is feasible in ˜1 min as the fluorescence intensity doubles. These findings are encouraging and serve as a standard for comparing the detection kinetics for other probes. […] In certain embodiments, reliable detection of elevated ALP may require longer incubations with the respective ABA system (FIG. 3G), as ALP has a relatively small margin of variation. The rates of biomarker detection can be modulated by substituting the HBI carbon framework of the probes (FIGS. 3A-3G) with electron donating (—OMe, —NMe2) or withdrawing (—F, —CF3) groups.

[1] = test system: E. coli competent cells (e.g., BL21-DE3); assay: Fluorescence imaging of H2O2 in E. coli expressing aptamer; assay type: cell-based; details: for fluorescence in E. coli expressing aptamer: imaging buffer with H2O2 (100 μM)
Excerpt: FIGS. 8A-8D depict detection of H2O2 in E. coli utilizing PBAB-MFHBI. FIG. 8A provides a schematic showing the detection of H2O2 in E. coli by fluorescence of MFHBI upon cleavage from PBAB-MFHBI. FIGS. 8B-8D provide fluorescence images of E. coli expressing aptamer plasmid which have been administered MFHBI (FIG. 8B), PBA-MFHBI (FIG. 8C), and PBA-MFHBI in the presence of H2O2 (FIG. 8D). Dual channel: MFHBI+RNA (470/550 nm) and FM 4-64FX (510/640 nm). Scale bar: 10 μm.
For histochemical detection of oxidative stress in living cells, the focus is first on E. coli competent cells (e.g., BL21-DE3) (FIGS. 8A-8D). For the imaging of H2O2, BL21-DE3 cells are transformed with plasmid DNA that contains a T7 promoter and RNABabySpinach or a custom triple baby spinach construct, which allows for the expression of three baby spinach RNA aptamers per transcription cycle. These cells are inoculated with isopropyl β-D-1-thiogalactopyranoside (IPTG) to induce RNA transcription. […] The results can guide additional studies with more complex and biologically relevant cell lines, in particular, any primary or established mammalian cells (e.g., HEK293, HeLa, and HUVEC, inter alia). Detection of endogenous H2O2 generation can also be studied by using molecular stimulants known to trigger mitochondrial ROS production, such as Phorbol 12-myristate 13-acetate (PMA).

RNABabySpinach (51-nt) = assay: Experimental binding assay (fluorescence) with RNABabySpinach; details: Fluorophore (2 μM), RNA (1 μM); for fluorescence intensity with RNABabySpinach: HEPES (pH 8, 20 mM), KCl (100 mM), MgCl2 (10 mM)
Excerpt: FIGS. 4A-4E depict the effect of chemical modifications of HBI on its binding interactions with RNA. FIG. 4A is a crystal structure of DFHBI-RNASpinach (PDB: 4TS2) focusing on the key H-bonding interactions of DFHBI within the G-G-A binding pocket of RNASpinach. […] FIG. 4C is a Pymol view of docked Oct-HBI-RNASpinach, showing that these interactions are disrupted. FIG. 4D is a Pymol view of a docked methyl carbonate-modified HBI-RNASpinach, showing that these interactions are disrupted. FIG. 4E depicts normalized RFUs of HBI and HBI+RNABabySpinach (gray bars) vs. Oct-HBI and Oct-HBI+RNABabySpinach (blue bars). Fluorophore (2 μM), RNA (1 μM), HEPES (pH 8, 20 mM), KCl (100 mM), and MgCl2 (10 mM).
Ligand docking is a useful tool to screen virtual library of molecules to predict binding affinity and conformation of a ligand within a binding pocket. To gain a theoretical insight into the effect of chemical modifications of HBI on its binding interactions with RNA, a robust docking method named Auto-Dock Vina was used (FIGS. 4A-4D). First, the validity of this method was tested by comparing the proposed HBI-RNASpinach docking (FIG. 4B) with the X-ray crystal structure of the native ligand-RNASpinach [FIG. 4A; the co-crystallized ligand in the reported study is 3,5-difluoro-HBI (DFHBI)]. To attain the initial HBI structure for docking, optimizations were performed in gas phase via density functional theory calculations using B3LYP, 6-31G basis set in Gaussian16 software. […] Next, the phenolic oxygen of HBI was replaced with alkyl carbonate groups.

[2] = not told; cited from earlier work
[3] = free (unbound) ligand; cited from earlier work
BL21-DE3 cells = assay: Fluorescence imaging of H2S in E. coli expressing aptamer; assay type: cell-based; details: upon introduction of H2S (1 mM)
Excerpt: FIGS. 9A-9D depict detection of H2S in E. coli utilizing AEC-MFHBI. FIG. 9A provides a schematic showing the detection of H2S in E. coli by fluorescence of MFHBI upon cleavage from AEC-MFHBI. FIGS. 9B-9D provide fluorescence images of E. coli expressing aptamer plasmid which have been administered MFHBI (FIG. 9B), AEC-MFHBI (FIG. 9C), and AEC-MFHBI in the presence of H2S (FIG. 9D). Dual channel: MFHBI+RNA (470/550 nm) and FM 4-64FX (510/640 nm). Scale bar: 10 μm.
Imaging of hydrogen sulfide (H2S) has been performed in an analogous manner to that which is described for the detection of H2O2. Specifically, BL21-DE3 cells are transformed with plasmid DNA that contains a T7 promoter and RNABabySpinach or a custom triple baby spinach construct, which allows for the expression of three baby spinach RNA aptamers per transcription cycle. These cells are inoculated with isopropyl β-D-1-thiogalactopyranoside (IPTG) to induce RNA transcription. Subsequent immobilization of the cells on glass dish coated with poly-L-lysine (PLL) and incubation with an imaging buffer (IB) containing the imaging agents and/or controls (i.e., MFHBI, FIG. 9B; or AEC-MFHBI, FIGS. 9C-9D), allowed real time fluorescence imaging of SH2 in cellulo.

With `CC1=N/C(=C\c2ccc(OCc3ccc(B4OC(C)(C)C(C)(C)O4)cc3)cc2)C(=O)N1C` [PBE-HBI] the “RFU lower than that of HBI+RNABabySpinach” value (RNABabySpinach; 0 min (no H2O2 present), 50 μM ligand, 1 μM RNA, HEPES pH 8) was 14 fold, the “RFU as % of RFU of the control (HBI+RNABabySpinach)” value (RNABabySpinach; H2O2 (100 μM), in 60 min) was “up to 92%” and the “time for reliable detection of H2O2 (fluorescence intensity doubles)” value (RNABabySpinach; H2O2 detection) was about 1 min. The “incubation time to achieve 1/2 RFUmax” value (RNABabySpinach; H2O2 detection: conversion to HBI followed by HBI-aptamer binding) was 6.8 (±0.5) min, the “rise of fluorescence intensity of ligand+RNABabySpinach+H2O2” value (RNABabySpinach; after 60 min) was about 8 fold and the “rise of fluorescence intensity of ligand+RNABabySpinach+H2O2” value (RNABabySpinach; at 5 min) was about 4 fold. The “fluorescence in E. coli expressing aptamer” value [1] was “rapid increase in fluorescence within one hour”.

For “4-hydroxy-benzylidene imidazolinone [HBI, reference compound]”, the “growth in fluorescence intensity upon H2O2 addition” value (RNABabySpinach; H2O2 addition, solution pH increased from 8.0 to 8.4) is listed as about 10%, the “fluorescence intensity with RNABabySpinach” value (RNABabySpinach (51-nt)) is listed as 846 RFU and the cell permeability [2] is listed as “cell permeable”. For the same compound, the fluorescence quantum yield Φf [3] was about 0.0001.

For `CC1=N/C(=C\c2ccc(OCc3ccc(B(O)O)cc3)c(F)c2)C(=O)N1C` [PBAB-MFHBI], the “fluorescence in E. coli expressing aptamer, control sample” value ([1]; exogenous H2O2 absent (FIG. 8C)) was “very small increase in fluorescence” and the “fluorescence in E. coli expressing aptamer” value [1] was “rapid increase in fluorescence within one hour”.

For `CC1=N/C(=C\c2ccc(OC(=O)OCCN=[N+]=[N-])c(F)c2)C(=O)N1C` [AEC-MFHBI], the “fluorescence in E. coli expressing aptamer” value (BL21-DE3 cells) was “rapid increase in fluorescence is observed within one hour”.

With `CCCCCCCCOC(=O)Oc1ccc(/C=C2\N=C(C)N(C)C2=O)cc1` [Oct-HBI] the “fluorescence intensity with RNABabySpinach” value (RNABabySpinach (51-nt)) was 21 RFU and the “decrease in fluorescence intensity compared to HBI-RNABabySpinach” value (RNABabySpinach (51-nt); HEPES pH 8) was about 40 times.
